Tests used:
[1] = tested on: Angiogenesis in CAM model; assay: Neovascularization on the CAM (chick chorioallantoic membrane model of angiogenesis); type: in vivo, chicken; details: 30 ug; for Percent inhibition of angiogenesis in CAM model at 30 ug: unit assumed
Description: In vivo neovascularization was examined by the method previously described by Auerbach et al. (J. Dev. Biol. 41:391-394 (1974)). Ten-day old chicken embryos were purchased from Spafas, Inc. (Preston, Conn.) and were incubated at 37° C. with 55% relative humidity. In the dark, with the aid of a candling lamp, a small hole was punctured in the shell concealing the air sac with a hypodermic needle. A second hole was punctured in the shell on the broadside of the egg directly over an […] portion of the embryonic membrane, as observed during candling. An artificial air sac was created beneath the second hole by applying gentle vacuum to the first hole using a small rubber squeeze bulb. The vacuum caused the chorioallantoic membrane (CAM) to separate from the shell.
A window, approximately 1.0 cm^2, was cut in the shell over the dropped CAM with the use of a small crafts grinding wheel (Dremel, Division of Emerson Electric Company Racine, Wis.). The window allowed direct access to the underlying CAM.
A pro-angiogenic agent was added to induce new blood vessel branches on the CAM of 10-day old embryos. Filter disks of #1 filter paper (Whatman International, United Kingdom) were punched using a small puncher and were soaked in 3 mg/mL cortisone acetate (Sigma, St. Louis, Mo.) in a solution (95% ethanol and water). The disks were subsequently air dried under sterile conditions. The disks were then suspended in PBS (Phosphate Buffered Saline) and placed on growing CAMs. Filters treated with TP-H (TEMPOL-H) or TEMPOL and/or H2O2 or TP-H and/or bFGF or VEGF were placed on the first day of the 3-day incubation.
For inducing angiogenesis, sterile filter disks were saturated with bFGF (1 μg/ml) (Life Technologies, Gaithersburg, Md.) or other pro-angiogenesis factors and control disks were saturated with PBS without Calcium and Magnesium. […]
Using sterile forceps one filter/CAM was placed from the window. The window was sealed with Highland brand transparent tape.
After 24-48 hr, 10-25 ul of test agent was injected intravenously or added topically into the CAM membrane. Eight-Ten eggs/treatment group were used.
CAM tissue directly beneath filter disk was harvested from embryos treated 48 hours prior with compound or control. Tissues were washed three times with PBS. Sections were placed in a 35-mm petri dish (Nalge Nunc, Rochester, N.Y.) and examined under a SV6 stereomicroscope (Karl Zeiss, Thornwood, N.Y.) at 50× magnification.
CAM sections from Petri dish were examined using SV6 stereomicroscope (Karl Zeiss) at 50× magnification. Digital images of CAM sections from Petri dish were collected using a 3-CCD color video camera system (Toshiba America, New York, N.Y.). These images were analyzed using Image-Pro Plus software (Media Cybernetics, Silver Spring, Md.).
The number of branch points in blood vessels within the circular region superimposed to the area of a filter disk was counted for each section. After incubation at 37° C. with 55% relative humidity for 3 days, the CAM tissue directly beneath each filter disk was resected from control and treated CAM samples. Tissues were washed three times with PBS. Sections were placed in a 35-mm Petri dish (Nalge Nunc; Rochester, N.Y.) and were examined under a SV6 stereomicroscope (Karl Zeiss; Thornwood, N.Y.) at 50× magnification. Digital images of CAM sections adjacent to filters were collected using a 3-CCD color video camera system (Toshiba America; New York, N.Y.) and analyzed with the Image-Pro Plus software (Media Cybernetics; Silver Spring, Md.).
The number of vessel branch points contained in a circular region equal to the area of a filter disk was counted for each section. Percent inhibition data are expressed as the quotient of the experimental value minus the negative control value divided by the difference between the positive control value and the negative control value. […]

lipid peroxidation = assay: Lipid peroxidation inhibition (method of Ohkawa); type: biochemical
[2] = tested on: Human neuroblastoma SKN-SH cells, resistant to doxorubicin; assay: Chemoresistance: cancer cell viability (MTT) in presence or absence of doxorubicin; type: cell-based; details: compound 50 ug/mL, MTT
Description: A method for evaluating a compound's propensity to overcome cancer cell chemoresistance is described in “Caspase Inhibition Switches Doxorubicin-Induced Apoptosis To Senescence”, Abdelhadi Rebbaa, Xin Zheng, Pauline M Chou and Bernard L Mirkin, Oncogene (2003) 22, 2805-2811. Resistant human cancer cells to doxorubicin were selected by stepwise exposure to drug concentrations ranging from 10^−9 M-10^−6 M over 3 months. They were then subjected to treatment with the doxorubicin alone or in combination with hydroxylamine compounds 1-12, 16, 20, and 21 (Table 4). The cells were incubated with the drugs for 72 hours, and cell viability was measured by the MTT assay. Additionally, molecular pathways that might be associated with increased chemo-responsiveness with these compounds were investigated. p Cancer Cell Viability Data for certain hydroxylamines in the presence or absence of Doxorubicin is listed in Table 4.
A method for evaluating a compound's propensity to overcome cancer cell chemoresistance is described in “Caspase Inhibition Switches Doxorubicin-Induced Apoptosis To Senescence”, Abdelhadi Rebbaa, Xin Zheng, Pauline M Chou and Bernard L Mirkin, Oncogene (2003) 22, 2805-2811. Human neuroblastoma SKN-SH cells (ATCC Cat. No. HTB-11) were cultured in Dulbecco's Modified Eagles Medium (DMEM; Gibco, Grand Island, N.Y.) supplemented with 10% fetal bovine serum (FBS; Sigma-Aldrich, St. Louis, Mo.) at 37° C. in a 95% Air/5% CO2 atmosphere. Resistant human cancer cells to doxorubicin were selected by stepwise exposure to drug concentrations ranging from 10^−9M-10^−6M over 3 months. They were then subjected to treatment with the doxorubicin alone or in combination with hydroxylamine compounds. The cells were incubated with the drugs for 72 hours, and cell viability was measured by the MTT assay. This consists of adding 10 μl/well of MTT (5 mg/ml solution) and incubation for 4 h at 37° C. The precipitate formed is then solubilized by addition of 100 μl of HCL 0.5 N/Isopropanol and incubation for 15 hours at 37° C. The optical density is measured at 570 nm and cell survival is estimated by comparison to untreated cells. Each point represents 4 wells data represent average ± SE. Additionally, molecular pathways that might be associated with increased chemo-responsiveness with these compounds were investigated.
Cytotoxic activity of doxorubicin and hydroxylamine analogs were quantitatively determined by a colorimetric assay utilizing 3-(4,5-dimethyl-2-thiazolyl) 2,5-diphenyl tetrazolium bromide (MTT; Sigma-Aldrich, St. Louis, Mo.). Briefly, cells were seeded at 10^4 cells/well in 96-well plates and maintained in culture for 24 hours at 37° C. in DMEM supplemented with 10% FBS. Drugs were added to designated wells and cells were incubated for […], following which MTT (10 μL of 5 mg/ml solution) was added to each 100 μl well and incubated for 4 hours at 37° C. The cells were solubilized by incubation with 100 μl of HCl 0.5N in isopropanol for 15 hours at 37° C. The optical density of this solution was measured at 570 nm and the percentage of viable cells estimated by comparison with untreated control cells.

melting point | SMILES | Percent inhibition of angiogenesis in CAM model at 30 ug [1] [%] | % Lipid Peroxidation inhibition (at 1 uM) (lipid peroxidation) [%] | Mean OD (×10^−3), cancer cell viability ([2]; Dox. 10^−6 M present (+)) | Mean OD (×10^−3), cancer cell viability ([2]; Dox. absent (−)) | Lipid Peroxidation % Inhibition (lipid peroxidation; 10 uM) [%] | Lipid Peroxidation % Inhibition (lipid peroxidation; 100 uM) [%] | CAM data % Inhibition [1] [%]
 | CC1(C)C=C(CO)CC(C)(C)N1O.Cl [Compound 25] | 62.9 | 42.0 | 325.00 ×10^−3 | 1137.50 ×10^−3 |  |  | 
 | CC1(C)CC(NS(C)(=O)=O)CC(C)(C)N1O [Compound 10, 1-hydroxy-4-methanesulfonamido-2,2,6,6-tetramethylpiperidine] | 78.2 |  | 250.00 ×10^−3 | 456.00 ×10^−3 | 85.8 |  | 
181 °C | COc1cc(CNC2CC(C)(C)N(O)C(C)(C)C2)cc(OC)c1OC.Cl.Cl [Compound 58, N-(3,4,5-trimethoxybenzyl)-1-hydroxy-2,2,6,6-tetramethylpiperidin-4-amine] | 39 |  | 291.50 ×10^−3 | 1207.00 ×10^−3 |  |  | 
 | CC1(C)CC(O)C(C)(C)N1O (centres unmarked) [Compound 7, 2,2,5,5-Tetramethyl-Pyrrolidine-1,3-diol] | 100 |  | 241.25 ×10^−3 | 540.25 ×10^−3 | 82.9 |  | 
 | CC1(C)CC(CO)C(C)(C)N1O.Cl (centres unmarked) [Compound 33] | 77.8 | 54.9 | 300.00 ×10^−3 | 1237.50 ×10^−3 |  |  | 
187 °C (dec.) | CCCCC1(O)CC(C)(C)N(O)C(C)(C)C1.Cl [Compound 41, 1,4-dihydroxy-4-n-butyl-2,2,6,6-tetramethylpiperidine] | 84.4 |  | 261.25 ×10^−3 | 824.75 ×10^−3 |  |  | 
 | CC(C)(C)c1cc(NC(=O)C2CC(C)(C)N(O)C(C)(C)C2)cc(C(C)(C)C)c1O.Cl [Compound 29, N-(3,5-di-tert-butyl-4-hydroxyphenyl)-1-hydroxy-2,2,6,6-tetramethylpiperidine-4-carboxamide] | 100 | 92.3 | 105.75 ×10^−3 | 1328.00 ×10^−3 |  |  | 
201.8 °C (dec.) | CC1(C)CC(Cl)CC(C)(C)N1O.Cl [Compound 21, 4-chloro-1-hydroxy-2,2,6,6-tetramethylpiperidine] | 60.9 |  | 99.25 ×10^−3 | 492.75 ×10^−3 |  |  | 
 | O=C(O)c1cc(C(=O)O)c2c(n1)C(=O)C(=O)c1cc(C(=O)O)[nH]c1-2 [PQQ, pyrroloquinoline quinone, reference compound] |  |  |  |  |  | 93.7 | 
220 °C (dec.) | CC1(C)CC(O)(c2ccc(F)cc2)CC(C)(C)N1O.Cl [Compound 57, 4-(4-Fluorophenyl)-1-hydroxyl-2,2,6,6-tetramethylpiperidin-4-ol] | 100 |  | 426.25 ×10^−3 | 1078.50 ×10^−3 |  |  | 
 | COc1cc2c(cc1O)CC[C@@H]1[C@@H]2CC[C@]2(C)[C@@H](O)CC[C@@H]12 [2-Methoxy estradiol, reference compound] |  |  |  |  | 92.3 |  | 92.3
138.5 °C (dec.) | CC1(C)CC(O)C(Br)C(C)(C)N1O (centres unmarked) [Compound 9, 3-Bromo-2,2,6,6-tetramethyl-piperidine-1,4-diol] | 82.2 |  | 234.75 ×10^−3 | 509.00 ×10^−3 |  |  | 
 | CC1(C)C=CCC(C)(C)N1O.Cl [Compound 35, 1-hydroxy-1,2,3,6-tetrahydro-2,2,6,6-tetramethylpyridine] |  | 64.4 | 352.75 ×10^−3 | 1128.00 ×10^−3 |  |  | 
201.7 °C (dec.) | CC1(C)CC(O)(c2ccccc2)CC(C)(C)N1O.Cl [Compound 42, 1,4-Dihydroxy-4-phenyl-2,2,6,6-tetrmethylpiperidine] | 61.9 |  | 311.00 ×10^−3 | 1068.67 ×10^−3 |  |  | 
 | CC(C)(C)/[N+]([O-])=C/c1ccccc1 [Compound 17, α-phenyl-t-butyl nitrone, reference compound] |  |  |  |  | 0.4 |  | 
220.8 °C (dec.) | CC1(C)CC(Oc2nsnc2-c2ccccc2)CC(C)(C)N1O.Cl [Compound 44, 1-hydroxy-4-(4-phenyl-1,2,5-thiadiazol-3-yloxy)-2,2,6,6-tetramethylpiperidine] | 71.2 |  | 13.25 ×10^−3 | 23.00 ×10^−3 |  |  | 
181.5 °C (dec.) | CC1(C)CC(OCc2ccccc2)CC(C)(C)N1O.Cl [Compound 43, 4-Benzyloxy-1-hydroxy-2,2,6,6-tetramethylpiperidine] | 85.5 |  | 324.67 ×10^−3 | 1159.00 ×10^−3 |  |  | 
